# Data reported in patent US5976848A, “Method of identifying potential fungicides using dihydroorotate dehydrogenase inhibition assay” (priority 1992, dated 1999).
# Entries after “also recorded” stand apart in the source; their conditions may differ.
# Tests used:
# Botrytis cinerea = assay: greenhouse tests against Botrytis cinerea; type: in vivo
# Penicillium digitalum = assay: greenhouse tests against Penicillium digitalum; type: in vivo
# Aspergillus nidulans [1] = assay: growth inhibition of Aspergillus nidulans; type: cell-based
# Cephalosiorium = assay: sensitivity of Cephalosporium to CCFQ; type: cell-based
# Neurospora = assay: sensitivity of Neurospora to CCFQ; type: cell-based
# DHOD = DHOD in vitro tests; type: biochemical
# [2] = target: T1, DHOD produced by mutant Aspergillus nidulans strains resistant to CCFQ (Aspergillus nidulans, UniProt G5EB61); assay: inhibition of DHOD produced by CCFQ-resistant mutant strains; type: biochemical; details: DHOD from resistant mutant A. nidulans
# T1 construct: V200E (preferred, MNNG, FGSC612) or A115V (EMS, FGSC610)
# T1 sequence (G5EB61 1-520): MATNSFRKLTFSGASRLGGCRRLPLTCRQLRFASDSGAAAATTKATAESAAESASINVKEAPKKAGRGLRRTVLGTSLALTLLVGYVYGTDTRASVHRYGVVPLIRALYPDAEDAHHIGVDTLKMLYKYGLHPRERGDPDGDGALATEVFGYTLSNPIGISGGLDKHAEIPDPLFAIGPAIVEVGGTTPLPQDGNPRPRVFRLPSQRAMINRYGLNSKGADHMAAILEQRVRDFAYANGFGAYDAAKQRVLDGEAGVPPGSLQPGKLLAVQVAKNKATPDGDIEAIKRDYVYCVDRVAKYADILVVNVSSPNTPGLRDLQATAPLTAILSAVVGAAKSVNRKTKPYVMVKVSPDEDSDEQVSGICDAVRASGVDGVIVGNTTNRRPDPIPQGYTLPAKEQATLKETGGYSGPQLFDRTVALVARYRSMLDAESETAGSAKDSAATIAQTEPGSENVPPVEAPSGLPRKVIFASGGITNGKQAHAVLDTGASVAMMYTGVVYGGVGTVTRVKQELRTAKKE
# Aspergillus nidulans [3] = assay: physiological and biochemical responses of Aspergillus nidulans treated with CCFQ; type: cell-based
# Excerpt: The physiological and biochemical responses caused by the experimental fungicide CCFQ are not characteristic of known modes of action. […] It causes an unusual effect on synthesis of nucleic acids in that incorporation of radiolabelled precursors is stimulated by treatment with CCFQ. […] Some media supplements overcame growth inhibition by CCFQ. […] All these observations are consistent with the primary target of CCFQ being an electron-transferring enzyme in the pyrimidine biosynthetic pathway. […] This is a novel fungicidal mode of action, and its discovery opens the opportunity to detect novel chemical compounds that attack the same target.
# [4] = treatment of Aspergillus nidulans
structure (smiles),measurement,setting,value
"Fc1ccc(Oc2ccnc3c(Cl)cccc23)c(Cl)c1 [CCFQ, 8-chloro-4-(2-chloro-4-fluorophenoxy)quinoline]",inhibition of Botrytis cinerea,"Botrytis cinerea; 50 μg/ml, greenhouse tests",completely inhibits
same,inhibition of growth of Botrytis cinerea,Botrytis cinerea; no concentration stated,completely inhibits
same,inhibition of Penicillium digitalum,"Penicillium digitalum; 50 μg/ml, greenhouse tests",completely inhibits
same,inhibition of growth of Penicillium digitalum,Penicillium digitalum; no concentration stated,completely inhibits
same,IC50,"Aspergillus nidulans [1]; against Aspergillus nidulans, read-out: IC50 (concentration that inhibits growth by 50%)",0.15 µg/mL
same,inhibition of growth of Aspergillus,Aspergillus nidulans [1]; no concentration stated,inhibits the growth
same,sensitivity to CCFQ / growth inhibition,Cephalosiorium,inhibits the growth; also recorded: sensitive
same,sensitivity to CCFQ / growth inhibition,Neurospora,inhibits the growth; also recorded: sensitive
same,sensitivity of DHOD to CCFQ,DHOD,extremely sensitive
same,inhibition of DHOD of CCFQ-resistant mutant strains,[2],resistant to inhibition
same,reversal of growth inhibition by media supplements,Aspergillus nidulans [3]; combination of uracil and a free radical scavenger such as α-tocopherol,complete reversal
same,change in amino acid content,Aspergillus nidulans [3]; [4],no significant changes
same,change in lipid composition,Aspergillus nidulans [3]; [4],no significant changes
same,change in protein accumulation,Aspergillus nidulans [3]; [4],no significant changes
same,change in respiration,Aspergillus nidulans [3]; [4],no significant changes
same,effect on cell wall synthesis,Aspergillus nidulans [3]; [4],perturbs cell wall synthesis in a non-specific manner
same,incorporation of radiolabelled precursors (synthesis of nucleic acids),Aspergillus nidulans [3]; [4],stimulated
